Measured values from ChEMBL document CHEMBL4334550, “Toward Orally Absorbed Prodrugs of the Antibiotic Aztreonam. Design of Novel Prodrugs of Sulfate Containing Drugs. Part 2” (ACS Med Chem Lett, 2020).

Columns and labels:
Liver carboxylesterase 1 [1] = target: T1, Liver carboxylesterase 1 (Homo sapiens, UniProt P23141); experiment: Prodrug conversion assessed as CES1 (unknown origin) mediated aztreonam release in 2.5% acetonitrile in 0.05M citrate buffer at 0.5 mg/ml at pH 4.7 at 37degC after 2 mins in presence of 150 units/ml of CES1 enzyme by HPLC analysis; format: ADME; conditions: pH 4.7, 2 min
T1 sequence (P23141 whole entry): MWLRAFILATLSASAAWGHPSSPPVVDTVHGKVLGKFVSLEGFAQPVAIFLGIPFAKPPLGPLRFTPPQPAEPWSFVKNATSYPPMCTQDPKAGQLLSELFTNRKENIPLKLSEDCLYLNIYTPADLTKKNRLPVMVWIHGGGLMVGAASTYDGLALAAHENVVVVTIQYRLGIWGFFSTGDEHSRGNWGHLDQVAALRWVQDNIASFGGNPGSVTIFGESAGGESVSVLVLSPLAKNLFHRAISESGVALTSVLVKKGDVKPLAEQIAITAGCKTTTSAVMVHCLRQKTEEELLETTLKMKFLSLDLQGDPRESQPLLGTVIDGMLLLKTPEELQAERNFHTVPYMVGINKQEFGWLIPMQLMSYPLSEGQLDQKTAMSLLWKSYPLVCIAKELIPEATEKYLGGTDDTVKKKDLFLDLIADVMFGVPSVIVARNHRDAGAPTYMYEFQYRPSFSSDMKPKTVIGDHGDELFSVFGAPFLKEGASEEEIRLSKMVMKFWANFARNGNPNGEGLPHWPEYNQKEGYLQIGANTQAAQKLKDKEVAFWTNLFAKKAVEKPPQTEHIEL

Liver carboxylesterase 1 [2] = target: T1, Liver carboxylesterase 1; experiment: Prodrug conversion assessed as CES1 (unknown origin) mediated aztreonam release in 2.5% acetonitrile in 0.05M citrate buffer at 0.5 mg/ml at pH 4.7 at 37degC after 5 mins in presence of 150 units/ml of CES1 enzyme by HPLC analysis; format: ADME; conditions: pH 4.7, 5 min
Liver carboxylesterase 1 [3] = target: T1, Liver carboxylesterase 1; experiment: Prodrug conversion assessed as CES1 (unknown origin) mediated aztreonam release in 2.5% acetonitrile in 0.05M citrate buffer at 0.5 mg/ml at pH 4.7 at 37degC after 10 mins in presence of 150 units/ml of CES1 enzyme by HPLC analysis; format: ADME; conditions: pH 4.7, 10 min
Liver carboxylesterase 1 [4] = target: T1, Liver carboxylesterase 1; experiment: Prodrug conversion assessed as CES1 (unknown origin) mediated aztreonam release in 2.5% acetonitrile in 0.05M citrate buffer at 0.5 mg/ml at pH 4.7 at 37degC after 20 mins in presence of 150 units/ml of CES1 enzyme by HPLC analysis; format: ADME; conditions: pH 4.7, 20 min
Liver carboxylesterase 1 [5] = target: T1, Liver carboxylesterase 1; experiment: Prodrug conversion assessed as CES1 (unknown origin) mediated aztreonam release in 2.5% acetonitrile in 0.05M citrate buffer at 0.5 mg/ml at pH 4.7 at 37degC after 30 mins in presence of 150 units/ml of CES1 enzyme by HPLC analysis; format: ADME; conditions: pH 4.7, 0.5 h
Liver carboxylesterase 1 [6] = target: T1, Liver carboxylesterase 1; experiment: Prodrug conversion assessed as CES1 (unknown origin) mediated aztreonam release in 2.5% acetonitrile in 0.05M citrate buffer at 0.5 mg/ml at pH 4.7 at 37degC measured immediately in presence of 150 units/ml of CES1 enzyme by HPLC analysis; format: ADME; conditions: BLD = below limit of detection
Liver carboxylesterase 1 [7] = target: T1, Liver carboxylesterase 1; experiment: Prodrug conversion assessed as CES1 (unknown origin) mediated aztreonam and beta-lactam ring-opened prodrug intermediate release in 2.5% acetonitrile in 0.05M citrate buffer at 0.5 mg/ml at pH 4.7 at 37degC in presence of CES1 at lower concentration by HPLC analysis; format: ADME
[8] = Stability of the compound in 2.5% acetonitrile in 0.05M citrate buffer assessed as aztreonam and beta-lactam ring-opened prodrug intermediate release at 0.5 mg/ml at pH 4.7 at 37degC by HPLC analysis; format: physicochemical
Liver carboxylesterase 1 [9] = target: T1, Liver carboxylesterase 1; experiment: Prodrug conversion assessed as CES1 (unknown origin) mediated aztreonam release in 2.5% acetonitrile in 0.05M citrate buffer at 0.5 mg/ml at pH 4.7 at 37degC after 1 min in presence of 150 units/ml of CES1 enzyme by HPLC analysis; format: ADME; conditions: pH 4.7, 1 min, BLD = below limit of detection
[10] = Oral bioavailability in human at 500 mg administered as solution measured 16 hrs post dosing; format: ADME, organism-based; conditions: in vivo
[11] = Oral bioavailability in human at 500 mg administered twice as 250 mg tablet formulation measured 16 hrs post dose; format: ADME, organism-based; conditions: in vivo

Drug metabolism (Liver carboxylesterase 1 [1])	Drug metabolism (Liver carboxylesterase 1 [2])	Drug metabolism (Liver carboxylesterase 1 [3])	Drug metabolism (Liver carboxylesterase 1 [4])	Drug metabolism (Liver carboxylesterase 1 [5])	Drug metabolism (Liver carboxylesterase 1 [6])	Drug metabolism (Liver carboxylesterase 1 [7])	Stability [8]	Drug metabolism (Liver carboxylesterase 1 [9])	SMILES	bioavailability [10]	bioavailability [11]
45%	76%	86%	90%	90%	Bld	Metabolite_Detected	Unstable		CCOC(=O)CCC(C)(C)COS(=O)(=O)N1C(=O)[C@@H](NC(=O)/C(=N\OC(C)(C)C(=O)O)c2csc(N)n2)[C@@H]1C.O=C(O)C(F)(F)F		
4%	8%	14%	23%	28%	Bld	Metabolite_Detected	Unstable	Bld	CCOC(=O)C(C)(C)COS(=O)(=O)N1C(=O)[C@@H](NC(=O)/C(=N\OC(C)(C)C(=O)O)c2csc(N)n2)[C@@H]1C.O=C(O)C(F)(F)F		
> 95%	> 95%	> 95%	> 95%	> 95%	Bld	Metabolite_Detected	Unstable		C[C@H]1[C@H](NC(=O)/C(=N\OC(C)(C)C(=O)O)c2csc(N)n2)C(=O)N1S(=O)(=O)OCC(C)(C)CCOC(=O)C(C)(C)C.O=C(O)C(F)(F)F		
									C[C@H]1[C@H](NC(=O)/C(=N\OC(C)(C)C(=O)O)c2csc(N)n2)C(=O)N1S(=O)(=O)O [AZTREONAM]	< 1%	< 1%
